From ChEMBL document CHEMBL1144327, “Carbonic anhydrase inhibitors. Inhibition of the membrane-bound human and bovine isozymes IV with sulfonamides” (Bioorg Med Chem Lett, 2005) come the findings set out here.

In the first assay the target is Carbonic anhydrase 4 (Homo sapiens, UniProt P22748).
Carbonic anhydrase 4 (Homo sapiens, UniProt P22748), sequence (P22748 whole entry): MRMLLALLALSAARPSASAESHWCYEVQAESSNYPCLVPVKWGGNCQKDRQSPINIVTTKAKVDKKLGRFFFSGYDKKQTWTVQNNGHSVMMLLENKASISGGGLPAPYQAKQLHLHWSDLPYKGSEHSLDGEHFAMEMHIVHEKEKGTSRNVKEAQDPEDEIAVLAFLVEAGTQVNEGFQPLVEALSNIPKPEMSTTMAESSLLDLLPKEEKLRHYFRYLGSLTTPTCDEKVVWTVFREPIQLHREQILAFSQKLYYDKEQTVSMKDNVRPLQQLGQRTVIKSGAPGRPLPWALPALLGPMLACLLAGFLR
Description: Inhibitory activity against human carbonic anhydrase IV (hCAIV)
For `Nc1ccc(S(N)(=O)=O)cc1F`, the Ki (usually the dissociation constant of the complex between target and ligand, obtained from inhibition or displacement) was found to be 910 nM. `Cc1ccc(-c2cc(C(F)(F)F)nn2-c2ccc(S(N)(=O)=O)cc2)cc1` [CELECOXIB] displayed a Ki of 880 nM. The compound `Nc1ccc(S(=O)(=O)NCc2ccc(S(N)(=O)=O)cc2)cc1` yielded a Ki of 84 nM. As for `Nc1cccc(S(N)(=O)=O)c1`, the Ki is 7750 nM. `CC1(C)O[C@@H]2[C@@H](CO[C@@]3(COS(N)(=O)=O)OC(C)(C)O[C@@H]23)O1` [TOPIRAMATE]: the affinity, expressed as Ki, was 4900 nM.

The compound `Nc1ccc(S(N)(=O)=O)cc1I` displayed a Ki of 920 nM. Compound `Nc1ccc(S(N)(=O)=O)cc1Cl` showed a Ki of 450 nM. Consider `NCc1ccc(S(N)(=O)=O)cc1` [MAFENIDE], for which affinity was put at a Ki of 8600 nM. Take `NNc1ccc(S(N)(=O)=O)cc1`: the Ki is 7700 nM. In the case of `Nc1ccc(S(N)(=O)=O)cc1` [SULFANILAMIDE], affinity was put at a Ki of 9760 nM. Compound `Nc1ccc(S(N)(=O)=O)cc1Br` displayed a Ki of 96 nM.

For a further assay, the target named is T1, Carbonic anhydrase 4 (Bos taurus, UniProt Q95323).
T1 sequence (Q95323 whole entry): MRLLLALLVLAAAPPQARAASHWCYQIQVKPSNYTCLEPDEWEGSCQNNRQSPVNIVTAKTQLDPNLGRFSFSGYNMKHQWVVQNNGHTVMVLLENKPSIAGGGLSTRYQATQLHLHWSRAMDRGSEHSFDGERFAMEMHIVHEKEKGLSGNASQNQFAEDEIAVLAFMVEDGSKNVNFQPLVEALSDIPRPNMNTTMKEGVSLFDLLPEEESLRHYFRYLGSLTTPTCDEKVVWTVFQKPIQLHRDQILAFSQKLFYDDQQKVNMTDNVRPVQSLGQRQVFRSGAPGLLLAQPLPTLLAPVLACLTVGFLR
Description: Inhibitory activity against bovine carbonic anhydrase IV (bCAIV)
Compound `Cc1ccc(-c2cc(C(F)(F)F)nn2-c2ccc(S(N)(=O)=O)cc2)cc1` [CELECOXIB] registered a Ki of 290 nM. Compound `Nc1ccc(S(=O)(=O)NCc2ccc(S(N)(=O)=O)cc2)cc1` registered an inhibition constant (Ki) of 50 nM.

In the case of `Nc1cc(C(F)(F)F)c(S(N)(=O)=O)cc1S(N)(=O)=O` [2,4-DISULFAMYLTRIFLUOROMETHYLANILINE], the Ki came to 240 nM.
